Experimental data published in patent US20210171948A1, “COMPOSITIONS AND METHODS FOR TARGETING GLYPICAN-2 IN THE TREATMENT OF CANCER” (Shepherd Therapeutics, Inc., priority 2019, published 2021).
d = 2'-deoxy (DNA); r = 2'-OH (RNA)

Key:
GPC2 mRNA = GPC2 mRNA knockdown in multiple cancer cell lines, 96 hour (Example 3); assay type: cell-based, human; details: 96 hour incubation
Method: siRNAs 1-5 from Table 7 were diluted to 40 nM in OptiMEM media and mixed in a 1:3 ratio (weight by volume) with RNAiMAX. This was incubated for 15 minutes at room temperature and dispensed onto cells plated in a 6 well tissue culture plate. Total RNA samples were collected at either 72 hours post transfection to compare knockdown efficiency (FIG. 2A), or at 24, 48, 72 or 96 hours post transfection to determine the extent of GPC2 mRNA knockdown over time (FIG. 2B). Expression levels of mRNA of GPC2 were measured in these samples using primers specific for GPC2 obtained commercially from Thermofisher (Carlsbad, Calif.) and standard qPCR technique.
GPC2 mRNA knockdown and changes in cell viability were assessed in multiple cancer cell lines. Cells were transfected with either a scrambled control siRNA or with GPC2 siRNA sequence 3 or sequence 5 from Table 7 using the RNAiMAX Lipofectamine kit (Invitrogen, Carlsbad, Calif.) as previously described in Example 2, either in 96 well format (for viability assays) or 6 well format (for knockdown assessment). Following a 96 hour incubation period, cells were washed and the viability measurement was assessed using Cell Titer Glo 2.0. Total RNA was isolated from the 6 well plate samples to determine knockdown efficiency.

CHLA-136 cells = assay: Cisplatin IC50 in siRNA-transfected cells, Cell Titer Glo 2.0 viability (Example 5); assay type: cell-based
Method: (§1) GPC2 mRNA was reduced using the indicated siRNAs and changes in cell viability were assessed in multiple cancer cell lines, in combination with Cisplatin treatment. Cells were transfected with either a scrambled control siRNA or with GPC2 siRNA sequences 3 or 5 from Table 7 using the RNAiMAX Lipofectamine kit (Invitrogen, Carlsbad, Calif.), as previously described, in either in 96 well (for viability assays) or 6 well format (for total RNA). Cisplatin was added at increasing concentrations (0 to 30 uM) to transfected cells at 24 hours post transfection. Following a 72 hour incubation period, cell viability was measured using Cell Titer Glo 2.0. Total RNA samples were also isolated to measure knockdown efficiency.

CHLA-172 cells = assay: as above; assay type: cell-based
Method: as §1

CHLA-90 cells [1] = assay: as above; assay type: cell-based
Method: as §1

CHP212 cells [2] = assay: as above; assay type: cell-based
Method: as §1

COV362 cells = assay: as above; assay type: cell-based
Method: as §1

GIST-T1 cells = assay: as above; assay type: cell-based
Method: as §1

KELLY cells = assay: as above; assay type: cell-based
Method: as §1

RH30 cells = assay: as above; assay type: cell-based
Method: as §1

RH41 cells = assay: as above; assay type: cell-based
Method: as §1

SH-SY5Y cells [3] = assay: as above; assay type: cell-based
Method: as §1

SK-N-BE2 cells [4] = assay: as above; assay type: cell-based
Method: as §1

SKNAS cells = assay: as above; assay type: cell-based
Method: as §1

SNU16 cells = assay: as above; assay type: cell-based
Method: as §1

TC32 cells = assay: as above; assay type: cell-based
Method: as §1

TC71 cells = assay: as above; assay type: cell-based
Method: as §1

TOV112D cells = assay: as above; assay type: cell-based
Method: as §1

CHLA-90 cells [5] = assay: Carboplatin IC50 in siRNA-transfected cells, Cell Titer Glo 2.0 viability (Example 6); assay type: cell-based
Method: (§2) GPC2 mRNA expression was reduced using the indicated siRNAs and changes in cell viability were assessed in multiple neuroblastoma cell lines. Cells were transfected with either a control siRNA or with GPC2 siRNA sequences 3, 5 or 7 from Table 7 using the RNAiMAX Lipofectamine kit (Invitrogen, Carlsbad, Calif.) as previously described in 96 wells for viability assays. Carboplatin was added at increasing concentrations (0 to 150 uM) to transfected cells at 24 hours post transfection. Following a 72 hour incubation period, viability measurements were made using Cell Titer Glo 2.0.

CHP212 cells [6] = assay: as above; assay type: cell-based
Method: as §2

SH-SY5Y cells [7] = assay: as above; assay type: cell-based
Method: as §2

SK-N-BE2 cells [8] = assay: as above; assay type: cell-based
Method: as §2

## GPC2 siRNA 5: siRNA duplex: sense CUCAGUAGCCCAGCACUCU[dT][dT] (SEQ ID NO: 211), anti-sense AGAGUGCUGGGCUACUGAG[dT][dT] (SEQ ID NO: 212) (sense CUCAGUAGCCCAGCACUCUTT; antisense AGAGUGCUGGGCUACUGAGTT; sugars from the 5' end r19 d2, backbone not given here; listed as Homo sapiens)
GPC2 mRNA; CHP212 (Neuroblastoma)
  % GPC2 knockdown: 65%
GPC2 mRNA; COV362 (Ovarian Carcinoma)
  % GPC2 knockdown: 79%
GPC2 mRNA; GIST-T1 (Gastrointestinal Stromal)
  % GPC2 knockdown: 76%
GPC2 mRNA; IMR32 (Neuroblastoma)
  % GPC2 knockdown: 25%
GPC2 mRNA; MCF7 (Breast)
  % GPC2 knockdown: 82%
GPC2 mRNA; RH30 (Rhabdomyosarcoma)
  % GPC2 knockdown: 83%
GPC2 mRNA; RH41 (Rhabdomyosarcoma)
  % GPC2 knockdown: 60%
GPC2 mRNA; SKNAS (Neuroblastoma)
  % GPC2 knockdown: 44%
GPC2 mRNA; SNU16 (Gastric)
  % GPC2 knockdown: 25%
GPC2 mRNA; TC32 (Ewing's Sarcoma)
  % GPC2 knockdown: 57%
GPC2 mRNA; TC71 (Ewing's Sarcoma)
  % GPC2 knockdown: 33%
GPC2 mRNA; TOV112D (Ovarian Carcinoma)
  % GPC2 knockdown: 78%
GPC2 mRNA; multiple cancer cell lines
  GPC2 knockdown across the cell lines of Table 8: GPC2 knockdown was observed in each cell line
CHLA-136 cells; CHLA-136
  Data Summary: effect of knockdown on sensitivity to cisplatin: increases sensitivity to
CHLA-136 cells; CHLA-136 cells transfected with the labelled siRNA, cisplatin added 24 hours post transfection, 72 hour incubation
  IC50: 6 µM
CHLA-172 cells; CHLA-172
  Data Summary: effect of knockdown on sensitivity to cisplatin: does not increase
CHLA-172 cells; CHLA-172 cells transfected with the labelled siRNA, cisplatin added 24 hours post transfection, 72 hour incubation
  IC50: 17 µM
CHLA-90 cells [1]; CHLA-90
  Data Summary: effect of knockdown on sensitivity to cisplatin: increases sensitivity to
CHLA-90 cells [1]; CHLA-90 cells transfected with the labelled siRNA, cisplatin added 24 hours post transfection, 72 hour incubation
  IC50: 15 µM
CHP212 cells [2]; CHP212
  Data Summary: effect of knockdown on sensitivity to cisplatin: increases sensitivity to
CHP212 cells [2]; CHP212 cells transfected with the labelled siRNA, cisplatin added 24 hours post transfection, 72 hour incubation
  IC50: 6 µM
COV362 cells; COV362
  Data Summary: effect of knockdown on sensitivity to cisplatin: does not increase
COV362 cells; COV362 cells transfected with the labelled siRNA, cisplatin added 24 hours post transfection, 72 hour incubation
  IC50: 18 µM
GIST-T1 cells; GIST-T1
  Data Summary: effect of knockdown on sensitivity to cisplatin: increases sensitivity to
GIST-T1 cells; GIST-T1 cells transfected with the labelled siRNA, cisplatin added 24 hours post transfection, 72 hour incubation
  IC50: 1 µM
KELLY cells; KELLY
  Data Summary: effect of knockdown on sensitivity to cisplatin: increases sensitivity to
KELLY cells; KELLY cells transfected with the labelled siRNA, cisplatin added 24 hours post transfection, 72 hour incubation
  IC50: 2.5 µM
RH30 cells; RH30
  Data Summary: effect of knockdown on sensitivity to cisplatin: does not increase
RH30 cells; RH30 cells transfected with the labelled siRNA, cisplatin added 24 hours post transfection, 72 hour incubation
  IC50: 2.5 µM
RH41 cells; RH41
  Data Summary: effect of knockdown on sensitivity to cisplatin: increases sensitivity to
RH41 cells; RH41 cells transfected with the labelled siRNA, cisplatin added 24 hours post transfection, 72 hour incubation
  IC50: 1 µM
SH-SY5Y cells [3]; SH-SY5Y
  Data Summary: effect of knockdown on sensitivity to cisplatin: increases sensitivity to
SH-SY5Y cells [3]; SH-SY5Y cells transfected with the labelled siRNA, cisplatin added 24 hours post transfection, 72 hour incubation
  IC50: 9.3 µM
SK-N-BE2 cells [4]; SK-N-BE2
  Data Summary: effect of knockdown on sensitivity to cisplatin: increases sensitivity to
SK-N-BE2 cells [4]; SK-N-BE2 cells transfected with the labelled siRNA, cisplatin added 24 hours post transfection, 72 hour incubation
  IC50: 3 µM
SKNAS cells; SKNAS
  Data Summary: effect of knockdown on sensitivity to cisplatin: increases sensitivity to
SKNAS cells; SKNAS cells transfected with the labelled siRNA, cisplatin added 24 hours post transfection, 72 hour incubation
  IC50: 9 µM
SNU16 cells; SNU16
  Data Summary: effect of knockdown on sensitivity to cisplatin: does not increase
SNU16 cells; SNU16 cells transfected with the labelled siRNA, cisplatin added 24 hours post transfection, 72 hour incubation
  IC50: 16 µM
TC32 cells; TC32
  Data Summary: effect of knockdown on sensitivity to cisplatin: does not increase
TC32 cells; TC32 cells transfected with the labelled siRNA, cisplatin added 24 hours post transfection, 72 hour incubation
  IC50: 1.2 µM
TC71 cells; TC71
  Data Summary: effect of knockdown on sensitivity to cisplatin: does not increase
TC71 cells; TC71 cells transfected with the labelled siRNA, cisplatin added 24 hours post transfection, 72 hour incubation
  IC50: 1.4 µM
TOV112D cells; TOV112D
  Data Summary: effect of knockdown on sensitivity to cisplatin: does not increase
TOV112D cells; TOV112D cells transfected with the labelled siRNA, cisplatin added 24 hours post transfection, 72 hour incubation
  IC50: 7 µM
CHLA-90 cells [5]; CHLA-90
  Data Summary: effect of knockdown on sensitivity to carboplatin: increases sensitivity to
CHLA-90 cells [5]; CHLA-90 cells transfected with the labelled siRNA, carboplatin added 24 hours post transfection, 72 hour incubation
  IC50: 100 µM
CHP212 cells [6]; CHP212
  Data Summary: effect of knockdown on sensitivity to carboplatin: increases sensitivity to
CHP212 cells [6]; CHP212 cells transfected with the labelled siRNA, carboplatin added 24 hours post transfection, 72 hour incubation
  IC50: 10.4 µM
SH-SY5Y cells [7]; SH-SY5Y
  Data Summary: effect of knockdown on sensitivity to carboplatin: increases sensitivity to
SH-SY5Y cells [7]; SH-SY5Y cells transfected with the labelled siRNA, carboplatin added 24 hours post transfection, 72 hour incubation
  IC50: 1.55 µM
SK-N-BE2 cells [8]; SK-N-BE2
  Data Summary: effect of knockdown on sensitivity to carboplatin: increases sensitivity to
SK-N-BE2 cells [8]; SK-N-BE2 cells transfected with the labelled siRNA, carboplatin added 24 hours post transfection, 72 hour incubation
  IC50: 11 µM
